The source made the active and inactive calls. The rule behind the calls is not given here.
Key:
HepG2 = assay: Cytotoxicity against human HepG2 cells assessed as inhibition of cell growth incubated for 48 hrs by MTT assay; format: functional, cell-based; conditions: HepG2, 48 h
RKO = assay: Cytotoxicity against human RKO cells assessed as inhibition of cell growth incubated for 48 hrs by MTT assay; format: functional, cell-based
MDA-MB-231 [1] = assay: Cytotoxicity against human MDA-MB-231 cells assessed as inhibition of cell growth incubated for 48 hrs by MTT assay; format: functional, cell-based; conditions: MDA-MB-231, 48 h
PC-3 = assay: Cytotoxicity against human PC-3 cells assessed as inhibition of cell growth incubated for 48 hrs by MTT assay; format: functional, cell-based; conditions: PC-3, 48 h
MG-63 = assay: Cytotoxicity against human MG-63 cells assessed as inhibition of cell growth incubated for 48 hrs by MTT assay; format: functional, cell-based; conditions: MG-63, 48 h
Mitochondrial membrane = assay: Induction of mitochondrial membrane potential depolarization in human MDA-MB-231 cells at 5 to 10 uM incubated for 24 hrs by JC-1 dye based flow cytometric analysis; conditions: dose 5-10 µM
[2] = Selectivity ratio of IC50 for HEK cells to IC50 for human MDA-MB-231 cells; format: toxicity; conditions: HEK cells versus MDA-MB-231 cells, read-out: Ratio IC50
[3] = Cytotoxicity against HEK cells assessed as inhibition of cell growth incubated for 48 hrs by MTT assay; format: toxicity, cell-based; conditions: human
Tubulin (Homo sapiens) [4] = biological target: T1, Tubulin (Homo sapiens) (UniProt P68371+Q9H4B7+P0DPH7+P68366+Q13509+Q71U36+P04350+Q3ZCM7+P07437+P68363+Q9BQE3+Q6PEY2+Q13885+Q9BVA1+Q9BUF5); assay: Disruption of microtubule network in human MDA-MB-231 cells assessed as decrease in beta-tubulin expression at 5 to 10 uM incubated for 24 hrs by immunofluorescence staining based confocal microscopic analysis; format: cell-based; conditions: dose 5-10 µM
MDA-MB-231 [5] = assay: Induction of apoptosis in human MDA-MB-231 cells assessed as late apoptotic cells at 10 uM incubated for 24 hrs by annexin V-FITC/PI staining based flow cytometry analysis (reference value: 0.2%); format: functional
MDA-MB-231 [6] = assay: Induction of apoptosis in human MDA-MB-231 cells assessed as viable cells at 10 uM incubated for 24 hrs by annexin V-FITC/PI staining based flow cytometry analysis (reference value: 98.4%); format: functional; conditions: read-out: Activity
MDA-MB-231 [7] = assay: Induction of intracellular ROS generation in human MDA-MB-231 cells at 5 to 10 uM incubated for 24 hrs by H2DCFDA staining based flow cytometric analysis; format: functional, cell-based; conditions: dose 5-10 µM
[8] = Selectivity ratio of IC50 for HEK cells to IC50 for human HepG2 cells; format: toxicity; conditions: HEK cells versus HepG2 cells, read-out: Ratio IC50
[9] = Selectivity ratio of IC50 for HEK cells to IC50 for human PC-3 cells; format: toxicity; conditions: HEK cells versus PC-3 cells, read-out: Ratio IC50
Tubulin (Homo sapiens) [10] = biological target: T1, Tubulin (Homo sapiens); assay: Disruption of microtubule network in human MDA-MB-231 cells assessed as decrease in beta-tubulin expression incubated for 24 hrs by immunofluorescence staining based confocal microscopic analysis; format: cell-based; conditions: dose 5-10 µM
MDA-MB-231 [11] = assay: Induction of apoptosis in human MDA-MB-231 cells assessed as late apoptotic cells at 5 uM incubated for 24 hrs by annexin V-FITC/PI staining based flow cytometry analysis (reference value: 0.2%); format: functional
MDA-MB-231 [12] = assay: Induction of apoptosis in human MDA-MB-231 cells assessed as necrotic cells at 10 uM incubated for 24 hrs by annexin V-FITC/PI staining based flow cytometry analysis (reference value: 0.0%); format: functional
MDA-MB-231 [13] = assay: Induction of apoptosis in human MDA-MB-231 cells assessed as early apoptotic cells at 5 uM incubated for 24 hrs by annexin V-FITC/PI staining based flow cytometry analysis (reference value: 1.4%); format: functional
MDA-MB-231 [14] = assay: Induction of apoptosis in human MDA-MB-231 cells assessed as necrotic cells at 5 uM incubated for 24 hrs by annexin V-FITC/PI staining based flow cytometry analysis (reference value: 0.0%); format: functional
MDA-MB-231 [15] = assay: Induction of apoptosis in human MDA-MB-231 cells assessed as early apoptotic cells at 10 uM incubated for 24 hrs by annexin V-FITC/PI staining based flow cytometry analysis (reference value: 1.4%); format: functional
MDA-MB-231 [16] = assay: Induction of apoptosis in human MDA-MB-231 cells assessed as viable cells at 5 uM incubated for 24 hrs by annexin V-FITC/PI staining based flow cytometry analysis (reference value: 98.4%); format: functional; conditions: read-out: Activity

Row | Structure (SMILES) | IC50 (HepG2) | IC50 (RKO) | IC50 (MDA-MB-231 [1]) | IC50 (PC-3) | IC50 (MG-63) | further results
1 | O=C(/C=C/c1nc(-c2ccc(F)cc2)n2ccccc12)c1ccc(F)c(F)c1 | > 50 µM | > 50 µM | > 50 µM | > 50 µM | 11.6 µM | –
2 | O=C(/C=C/c1nc(-c2ccc(Cl)cc2)n2ccccc12)c1ccc(F)c(F)c1 | > 50 µM | > 50 µM | > 50 µM | > 50 µM | > 50 µM | –
3 | O=C(/C=C/c1nc(-c2ccc(Cl)cc2)n2ccccc12)c1ccc(Cl)c(Cl)c1 | 4.57 µM | 7.83 µM | 3.26 µM | 14.9 µM | 7.89 µM | Activity (Mitochondrial membrane): Active; selectivity ratio [2]: 19; IC50 at 48 h [3]: 62 µM; Activity (Tubulin (Homo sapiens) [4]): Active; Activity (MDA-MB-231 [5]): 29.9%; viability at 10 µM (MDA-MB-231 [6]): 48.6%; Activity (MDA-MB-231 [7]): Active; selectivity ratio [8]: 13; selectivity ratio [9]: 4; Activity (Tubulin (Homo sapiens) [10]): Dose-dependent-effect; Activity (MDA-MB-231 [11]): 26.9%; Activity (MDA-MB-231 [12]): 0.3%; Activity (MDA-MB-231 [13]): 5.1%; Activity (MDA-MB-231 [14]): 1.6%; Activity (MDA-MB-231 [15]): 21.2%; viability at 5 µM (MDA-MB-231 [16]): 66.5%
4 | COC(=O)Nc1nc2cc(C(=O)c3cccs3)ccc2[nH]1 [NOCODAZOLE] | 2.15 µM | 2.56 µM | 3.2 µM | 2.89 µM | 1.25 µM | Activity (Mitochondrial membrane): Active; Activity (MDA-MB-231 [5]): 48.3%; viability at 10 µM (MDA-MB-231 [6]): 46%; Activity (MDA-MB-231 [7]): Active; Activity (MDA-MB-231 [12]): 0%; Activity (MDA-MB-231 [15]): 5.6%
5 | O=C(/C=C/c1nc(-c2ccc(C(F)(F)F)cc2)n2ccccc12)c1ccc(F)c(F)c1 | > 50 µM | > 50 µM | > 50 µM | > 50 µM | > 50 µM | –
6 | COc1ccc(C(=O)/C=C/c2nc(-c3ccccc3)n3ccccc23)cc1OC | > 50 µM | > 50 µM | > 50 µM | > 50 µM | 56.3 µM | –
7 | COc1cc(C(=O)/C=C/c2nc(-c3ccc(C(F)(F)F)cc3)n3ccccc23)cc(OC)c1OC | > 50 µM | > 50 µM | > 50 µM | > 50 µM | > 50 µM | –
8 | COc1ccc(C(=O)/C=C/c2nc(-c3ccc(F)cc3)n3ccccc23)cc1OC | > 50 µM | > 50 µM | > 50 µM | > 50 µM | > 50 µM | –
9 | COc1ccc(-c2nc(/C=C/C(=O)c3cc(OC)c(OC)c(OC)c3)c3ccccn23)cc1 | > 50 µM | > 50 µM | > 50 µM | > 50 µM | 21.3 µM | –
10 | COc1ccc(-c2nc(/C=C/C(=O)c3ccc(OC)c(OC)c3)c3ccccn23)cc1 | > 50 µM | > 50 µM | > 50 µM | > 50 µM | 20.5 µM | –
11 | COc1ccc(-c2nc(/C=C/C(=O)c3ccc(F)c(F)c3)c3ccccn23)cc1 | > 50 µM | > 50 µM | > 50 µM | > 50 µM | 32.6 µM | –
12 | COc1ccc(C(=O)/C=C/c2nc(-c3ccc(Cl)cc3)n3ccccc23)cc1OC | > 50 µM | > 50 µM | > 50 µM | > 50 µM | > 50 µM | –
13 | O=C(/C=C/c1nc(-c2ccccc2)n2ccccc12)c1ccc(Cl)c(Cl)c1 | > 50 µM | > 50 µM | > 50 µM | > 50 µM | 45.6 µM | –
14 | COc1cc(C(=O)/C=C/c2nc(-c3ccc(F)cc3)n3ccccc23)cc(OC)c1OC | > 50 µM | > 50 µM | > 50 µM | > 50 µM | > 50 µM | –
15 | O=C(/C=C/c1nc(-c2ccc(F)cc2)n2ccccc12)c1ccc(Cl)c(Cl)c1 | > 50 µM | > 50 µM | > 50 µM | > 50 µM | 10.2 µM | –
16 | COc1cc(C(=O)/C=C/c2nc(-c3ccc(Cl)cc3)n3ccccc23)cc(OC)c1OC | 20.8 µM | 18.8 µM | 4.23 µM | 17.9 µM | 6.23 µM | Activity (Mitochondrial membrane): Active; selectivity ratio [2]: 11; IC50 at 48 h [3]: 50 µM; Activity (Tubulin (Homo sapiens) [4]): Active; Activity (MDA-MB-231 [5]): 13.9%; viability at 10 µM (MDA-MB-231 [6]): 67.2%; Activity (MDA-MB-231 [7]): Active; selectivity ratio [8]: 2; selectivity ratio [9]: 3; Activity (Tubulin (Homo sapiens) [10]): Dose-dependent-effect; Activity (MDA-MB-231 [11]): 5.5%; Activity (MDA-MB-231 [12]): 0.3%; Activity (MDA-MB-231 [13]): 3.8%; Activity (MDA-MB-231 [14]): 0%; Activity (MDA-MB-231 [15]): 18.6%; viability at 5 µM (MDA-MB-231 [16]): 90.6%
17 | COc1ccc(C(=O)/C=C/c2nc(-c3ccc(C(F)(F)F)cc3)n3ccccc23)cc1OC | > 50 µM | > 50 µM | > 50 µM | > 50 µM | > 50 µM | –
18 | COc1ccc(-c2nc(/C=C/C(=O)c3ccc(Cl)c(Cl)c3)c3ccccn23)cc1 | > 50 µM | > 50 µM | > 50 µM | > 50 µM | 46.3 µM | –
19 | COc1cc(C(=O)/C=C/c2nc(-c3ccccc3)n3ccccc23)cc(OC)c1OC | 13.6 µM | > 50 µM | 12.3 µM | > 50 µM | 12.6 µM | –
20 | O=C(/C=C/c1nc(-c2ccc(C(F)(F)F)cc2)n2ccccc12)c1ccc(Cl)c(Cl)c1 | > 50 µM | > 50 µM | > 50 µM | > 50 µM | > 50 µM | –
21 | O=C(/C=C/c1nc(-c2ccccc2)n2ccccc12)c1ccc(F)c(F)c1 | > 50 µM | > 50 µM | > 50 µM | > 50 µM | 85.2 µM | –
